Experimental data: US20140005163A1 (NOVARTIS AG, priority 2010, published 2014)
pIC50: −log10 of the molar value.

Columns and labels:
[1] = test system: PKB Ser473 phosphorylation in Rat1-myr-HA-p110 alpha cells; assay: Reverse protein array assay, PKB Ser473 phosphorylation in Rat1-myr-p110 alpha cells; assay type: cell-based; conditions: 0.5 h, pAkt Ser473, 30 minutes compound incubation, read-out: p-PKB IC50
In short: (§1)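 Measured: PKB Ser473 phosphorylation by reverse protein array in Rat1 cells expressing myr-HA-p110 alpha, beta or delta, after 30 min compound treatment at 37 °C with 0.2% DMSO vehicle.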

PI3K delta = biological target: T1, PI3K delta (Homo sapiens, UniProt O00329); assay: PI3K delta kinase assay (Kinase-Glo luminescence); assay type: biochemical
T1 construct: for the full-length p110-d subunit are generated and fused by overlapping PCR; p85(iSH2) fusion partner (see partner chain) (N); His tag (C); made in house; host or cells: baculovirus; Tn5 (Trichoplusia ni) or TiniPro insect cells
In short: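 Kinase-Glo luminescence read-out of ATP remaining after 60 min at RT. Enzyme: 10 nM BV1060 (p85 iSH2–p110δ fusion, His-tagged); substrate 10 μg/mL PI, ATP 1 μM final; Tris pH 7.5 buffer with MgCl2, NaCl, CHAPS, DTT. IC50 from 4-parameter logistic fit over 8 concentrations.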

[2] = test system: S6 Ribosomal Protein phosphorylation Ser235/236 in TSC1 null mouse embryo fibroblast (MEF) cells; assay: Reverse protein array assay, S6 Ribosomal Protein phosphorylation Ser235/236 in TSC1 null MEF cells; assay type: cell-based; conditions: 1 h, pS6 ribosomal protein Ser235/236, 60 minutes incubation, read-out: p-S6 IC50
In short: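 TSC1−/− MEFs, seeded and held ≥20 h at 37 °C/5% CO2, were exposed to 8-step serial compound dilutions (0.02% DMSO final; DMSO vehicle control) for 60 min at 37 °C. Cells were then lysed on ice for 10 min and lysates spotted onto reverse protein array chips.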

[3] = test system: PKB Ser473 phosphorylation in Rat1-myr-HA-p110 beta cells; assay: Reverse protein array assay, PKB Ser473 phosphorylation in Rat1-myr-p110 beta cells; assay type: cell-based; conditions: 0.5 h, pAkt Ser473, 30 minutes incubation, read-out: p-PKB IC50
In short: as §1

T1 sequence (O00329 with tags, fused parts or gaps limits assumed): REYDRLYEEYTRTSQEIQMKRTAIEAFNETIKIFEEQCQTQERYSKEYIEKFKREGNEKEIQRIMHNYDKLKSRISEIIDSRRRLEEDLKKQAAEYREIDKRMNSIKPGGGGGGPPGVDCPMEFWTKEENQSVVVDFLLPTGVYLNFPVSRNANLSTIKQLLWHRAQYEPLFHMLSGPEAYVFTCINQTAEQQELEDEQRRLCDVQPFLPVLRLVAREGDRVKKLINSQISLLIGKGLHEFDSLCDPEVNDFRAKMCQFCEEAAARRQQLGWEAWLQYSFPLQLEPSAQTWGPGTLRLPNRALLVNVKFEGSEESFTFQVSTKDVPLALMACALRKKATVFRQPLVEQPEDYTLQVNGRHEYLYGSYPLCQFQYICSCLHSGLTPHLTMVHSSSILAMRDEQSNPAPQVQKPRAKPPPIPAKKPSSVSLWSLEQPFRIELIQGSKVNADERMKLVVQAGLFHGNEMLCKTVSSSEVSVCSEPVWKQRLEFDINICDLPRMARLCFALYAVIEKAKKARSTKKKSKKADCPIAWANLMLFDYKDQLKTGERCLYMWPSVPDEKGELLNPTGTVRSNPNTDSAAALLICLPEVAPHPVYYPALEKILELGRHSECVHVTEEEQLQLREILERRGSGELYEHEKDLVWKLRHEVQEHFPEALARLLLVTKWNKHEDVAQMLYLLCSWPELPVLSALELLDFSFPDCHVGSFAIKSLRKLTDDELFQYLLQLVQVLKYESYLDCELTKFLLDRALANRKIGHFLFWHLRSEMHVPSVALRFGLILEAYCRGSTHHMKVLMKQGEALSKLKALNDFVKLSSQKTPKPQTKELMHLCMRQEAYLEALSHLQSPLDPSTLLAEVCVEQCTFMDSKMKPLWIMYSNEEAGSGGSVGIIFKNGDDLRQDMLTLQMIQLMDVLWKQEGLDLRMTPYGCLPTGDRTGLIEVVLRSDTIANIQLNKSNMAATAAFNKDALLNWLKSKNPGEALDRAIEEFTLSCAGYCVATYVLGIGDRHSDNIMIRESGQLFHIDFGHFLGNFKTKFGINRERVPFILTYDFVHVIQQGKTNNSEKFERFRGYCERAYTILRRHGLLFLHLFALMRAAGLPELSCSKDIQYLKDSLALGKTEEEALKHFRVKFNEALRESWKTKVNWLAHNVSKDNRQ

SMILES	pIC50 [1]	pIC50 (PI3K delta)	pIC50 [3]	pIC50 [2]
CNC(=O)c1ccc(-c2ccc3ncc4c(c3c2)n(-c2cn(C)nc2Cl)c(=O)n4C)cc1 [Example 43.2, 4-[1-(3-Chloro-1-methyl-1H-pyrazol-4-yl)-3-methyl-2-oxo-2,3-dihydro-1H-imidazol[4,5-c]quinolin-8-yl]-N-methyl-benzamide]	8.22	7.47	> 8.30	> 9.30
Cc1nn(C)cc1-n1c(=O)n(C)c2cnc3ccc(-c4cncc(OC(CF)CF)c4)cc3c21 [Example 182, 1-(1,3-Dimethyl-1H-pyrazol-4-yl)-8-[5-(2-fluoro-1-fluoromethyl-ethoxy)-pyridin-3-yl]-3-methyl-1,3-dihydro-imidazo[4,5-c]quinolin-2-one]	7.82	8.10	7.74	8.30
COc1ccc(-c2ccc3ncc4c(c3c2)n(-c2c(C)nn(C)c2C)c(=O)n4C)cc1OC [Example 1.9, 8-(3,4-Dimethoxy-phenyl)-3-methyl-1-(1,3,5-trimethyl-1H-pyrazol-4-yl)-1,3-dihydro-imidazo[4,5-c]quinolin-2-one]	7.59	7.74	6.95	7.36
Cc1nn(C)cc1-n1c(=O)n(C)c2cnc3ccc(-c4cnc(N)c(C(=O)NC(C)C)c4)cc3c21 [Example 225, 2-Amino-5-[1-(1,3-dimethyl-1H-pyrazol-4-yl)-3-methyl-2-oxo-2,3-dihydro-1H-imidazo[4,5-c]quinolin-8-yl]-N-isopropyl-nicotinamide]	7.10	7.59	6.95	8.40
COc1ncc(-c2ccc3ncc4c(c3c2)n(-c2cn(C(C)C)nc2C)c(=O)n4C)c(OC)n1 [Example 234.3, 8-(2,4-Dimethoxy-pyrimidin-5-yl)-1-(1-isopropyl-3-methyl-1H-pyrazol-4-yl)-3-methyl-1,3-dihydro-imidazo[4,5-c]quinolin-2-one]	7.82	> 8.52	7.82	8.70
CCOc1cccc(-c2ccc3ncc4c(c3c2)n(-c2cn(C)nc2C)c(=O)n4C)c1 [Example 57, 1-(1,3-Dimethyl-1H-pyrazol-4-yl)-8-(3-ethoxy-phenyl)-3-methyl-1,3-dihydro-imidazo[4,5-c]quinolin-2-one]	7.29	6.67	6.97	8.30
CCNc1ncc(-c2ccc3ncc4c(c3c2)n(-c2c(C)nn(C)c2C)c(=O)n4C)cc1C(F)(F)F [Example 145.1, 8-(6-Ethylamino-5-trifluoromethyl-pyridin-3-yl)-3-methyl-1-(1,3,5-trimethyl-1H-pyrazol-4-yl)-1,3-dihydro-imidazo[4,5-c]quinolin-2-one]	7.16	7.74	6.77	7.30
COc1cc(-c2ccc3ncc4c(c3c2)n(-c2cn(C(C)C)nc2C)c(=O)n4C)cnc1CO [Example 194.1, 8-(6-Hydroxymethyl-5-methoxy-pyridin-3-yl)-1-(1-isopropyl-3-methyl-1H-pyrazol-4-yl)-3-methyl-1,3-dihydro-imidazo[4,5-c]quinolin-2-one]	7.36	7.82	7.09	7.70
Cc1nn(C)cc1-n1c(=O)n(C)c2cnc3ccc(-c4cccc(N(C)S(C)(=O)=O)c4)cc3c21 [Example 117, N-{3-[1-(1,3-Dimethyl-1H-pyrazol-4-yl)-3-methyl-2-oxo-2,3-dihydro-1H-imidazo[4,5-c]quinolin-8-yl]-phenyl}-N-methyl-methanesulfonamide]	6.55	6.83	6.18	6.81
CCOCc1ncc(-c2ccc3ncc4c(c3c2)n(-c2cn(C)nc2Cl)c(=O)n4C)cc1OC [Example 196.1, 1-(3-Chloro-1-methyl-1H-pyrazol-4-yl)-8-(6-ethoxymethyl-5-methoxy-pyridin-3-yl)-3-methyl-1,3-dihydro-imidazo[4,5-c]quinolin-2-one]	7.35	8.30	6.99	8.00

More lines, main results first:

pIC50 [1]	pIC50 (PI3K delta)	pIC50 [3]	SMILES	pIC50 [2]
> 8.30	> 8.52	> 8.30	CNc1cc(-c2ccc3ncc4c(c3c2)n(-c2cn(C)nc2Cl)c(=O)n4C)cnc1COC [Example 160.1, 1-(3-Chloro-1-methyl-1H-pyrazol-4-yl)-8-(6-methoxymethyl-5-methylamino-pyridin-3-yl)-3-methyl-1,3-dihydro-imidazo[4,5-c]quinolin-2-one]	> 9.30
7.39	6.57	7.54	CCOc1ccc(-c2ccc3ncc4c(c3c2)n(-c2cn(CCOC)nc2C)c(=O)n4C)cn1 [Example 131, 8-(6-Ethoxy-pyridin-3-yl)-1-[1-(2-methoxy-ethyl)-3-methyl-1H-pyrazol-4-yl]-3-methyl-1,3-dihydro-imidazo[4,5-c]quinolin-2-one]	8.30
7.23	6.63	6.79	Cc1cc(-n2c(=O)n(C)c3cnc4ccc(-c5cncc(N6CCOCC6)c5)cc4c32)n(C)n1 [Example 175.2, 1-(2,5-Dimethyl-2H-pyrazol-3-yl)-3-methyl-8-(5-morpholin-4-yl-pyridin-3-yl)-1,3-dihydro-imidazo[4,5-c]quinolin-2-one]	7.49
7.48	8.22	7.28	COCCOc1cc(-c2ccc3ncc4c(c3c2)n(-c2cn(C)nc2C)c(=O)n4C)cnc1C [Example 86.2, 1-(1,3-Dimethyl-1H-pyrazol-4-yl)-8-[5-(2-methoxy-ethoxy)-6-methyl-pyridin-3-yl]-3-methyl-1,3-dihydro-imidazo[4,5-c]quinolin-2-one]	8.30
7.60	7.34	7.14	Cc1nn(C)c(C)c1-n1c(=O)n(C)c2cnc3ccc(-c4cnc(N)c(C(F)(F)F)c4)cc3c21 [Example 25.3, 8-(6-Amino-5-trifluoromethyl-pyridin-3-yl)-3-methyl-1-(1,3,5-trimethyl-1H-pyrazol-4-yl)-1,3-dihydro-imidazo[4,5-c]quinolin-2-one]	8.70
7.77	8.10	7.52	CCNc1ncc(-c2ccc3ncc4c(c3c2)n(-c2cn(C)nc2C)c(=O)n4C)cc1Cl [Example 147, 8-(5-Chloro-6-ethylamino-pyridin-3-yl)-1-(1,3-dimethyl-1H-pyrazol-4-yl)-3-methyl-1,3-dihydro-imidazo[4,5-c]quinolin-2-one]	8.26
7.96	8.22	7.62	Cc1nn(C)cc1-n1c(=O)n(C)c2cnc3ccc(-c4cnc(Cl)c(NS(C)(=O)=O)c4)cc3c21 [Example 223, N-{2-Chloro-5-[1-(1,3-dimethyl-1H-pyrazol-4-yl)-3-methyl-2-oxo-2,3-dihydro-1H-imidazo[4,5-c]quinolin-8-yl]-pyridin-3-yl}-methanesulfonamide]	7.46
6.94	7.96	7.06	CNc1cc(-c2ccc3ncc4c(c3c2)n(-c2c(C)nn(C)c2C)c(=O)n4C)cnc1CO [Example 158.4, 8-(6-Hydroxymethyl-5-methylamino-pyridin-3-yl)-3-methyl-1-(1,3,5-trimethyl-1H-pyrazol-4-yl)-1,3-dihydro-imidazo[4,5-c]quinolin-2-one]	6.82
7.30	6.95	7.24	Cc1nn(C)cc1-n1c(=O)n(C)c2cnc3ccc(-c4cccnc4)cc3c21 [Example 10.2, 1-(1,3-Dimethyl-1H-pyrazol-4-yl)-3-methyl-8-pyridin-3-yl-1,3-dihydro-imidazo[4,5-c]quinolin-2-one]	7.62
7.96	7.85	7.21	COc1cc(-c2ccc3ncc4c(c3c2)n(-c2cn(CCO)nc2C)c(=O)n4C)cnc1C [Example 211.1, 1-[1-(2-Hydroxy-ethyl)-3-methyl-1H-pyrazol-4-yl]-8-(5-methoxy-6-methyl-pyridin-3-yl)-3-methyl-1,3-dihydro-imidazo[4,5-c]quinolin-2-one]	7.68
7.29	7.62	7.27	Cc1nn(C)cc1-n1c(=O)n(C)c2cnc3ccc(-c4cncc(OCCF)c4)cc3c21 [Example 181, 1-(1,3-Dimethyl-1H-pyrazol-4-yl)-8-[5-(2-fluoro-ethoxy)-pyridin-3-yl]-3-methyl-1,3-dihydro-imidazo[4,5-c]quinolin-2-one]	8.52
